# Measurements taken from US20250312352A1, “GLP-1R MODULATING COMPOUNDS” (Gilead Sciences, Inc., priority 2021, published 2025).
# Target: T1, GLP-1R (Homo sapiens, UniProt P43220)
# T1 construct: host or cells: CHO cells
# Experiment: GLP-1R activation cAMP assay (Assay 1 or Assay 2)
# Format: cell-based
# Details: cAMP increase in CHO cells stably expressing GLP-1R; compounds run on one of the two cAMP assays
# Procedure, shortened: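 EC50 values come from a sigmoidal fit of HTRF-detected cAMP rise versus log agonist concentration. GLP-1R-expressing CHO cells, equilibrated 1 h at 37 °C in HBSS with HEPES and BSA, received a 10-point compound dose series for 30 min before detection.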
# T1 sequence (P43220 24-463): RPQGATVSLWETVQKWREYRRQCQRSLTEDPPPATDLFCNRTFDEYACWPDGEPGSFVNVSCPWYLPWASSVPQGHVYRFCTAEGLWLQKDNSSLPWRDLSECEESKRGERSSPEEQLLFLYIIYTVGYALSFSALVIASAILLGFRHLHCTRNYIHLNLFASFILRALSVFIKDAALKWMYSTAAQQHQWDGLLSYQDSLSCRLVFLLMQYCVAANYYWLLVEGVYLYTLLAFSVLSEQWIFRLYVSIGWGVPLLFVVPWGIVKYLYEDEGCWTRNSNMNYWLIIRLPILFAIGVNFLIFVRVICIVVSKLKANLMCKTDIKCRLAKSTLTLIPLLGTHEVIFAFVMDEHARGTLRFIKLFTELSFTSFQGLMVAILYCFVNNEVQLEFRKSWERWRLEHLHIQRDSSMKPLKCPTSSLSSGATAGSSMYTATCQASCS
row,SMILES,EC50 [pM]
1,"CC(C)(O)C#Cc1cnc(COc2cccc(-c3cc(F)c(Cc4nc5ccc(C(=O)O)cc5n4C[C@@H]4CCO4)cc3F)n2)s1 [Example 334, (S)-2-(2,5-difluoro-4-(6-((5-(3-hydroxy-3-methylbut-1-yn-1-yl)thiazol-2-yl)methoxy)pyridin-2-yl)benzyl)-1-(oxetan-2-ylmethyl)-1H-benzo[d]imidazole-6-carboxylic acid]",354
2,"Cn1cc(C#Cc2ccc(COc3cccc(-c4cc(F)c(Cc5nc6ccc(C(=O)O)cc6n5C[C@@H]5CCO5)cc4F)n3)s2)cn1 [Example 112, (S)-2-(2,5-difluoro-4-(6-((5-((1-methyl-1H-pyrazol-4-yl)ethynyl)thiophen-2-yl)methoxy)pyridin-2-yl)benzyl)-1-(oxetan-2-ylmethyl)-1H-benzo[d]imidazole-6-carboxylic acid]",130
3,"O=C(O)c1ccc2nc(Cc3cc(F)c(-c4cccc(OCc5nncs5)n4)cc3F)n(C[C@@H]3CCO3)c2c1 [Example 59, (S)-2-(4-(6-((1,3,4-thiadiazol-2-yl)methoxy)pyridin-2-yl)-2,5-difluorobenzyl)-1-(oxetan-2-ylmethyl)-1H-benzo[d]imidazole-6-carboxylic acid]",2380
4,"Cn1ccc(COc2cccc(-c3cc(F)c(Cc4nc5ccc(C(=O)O)cc5n4C[C@@H]4CCO4)cc3F)n2)n1 [Example 124, (S)-2-(2,5-difluoro-4-(6-((1-methyl-1H-pyrazol-3-yl)methoxy)pyridin-2-yl)benzyl)-1-(oxetan-2-ylmethyl)-1H-benzo[d]imidazole-6-carboxylic acid]",810
5,"Cn1nc(COc2cccc(-c3cc(F)c(Cc4nc5ccc(C(=O)O)cc5n4C[C@@H]4CCO4)cc3F)n2)cc1C#N [Example 207, (S)-2-(4-(6-((5-cyano-1-methyl-1H-pyrazol-3-yl)methoxy)pyridin-2-yl)-2,5-difluorobenzyl)-1-(oxetan-2-ylmethyl)-1H-benzo[d]imidazole-6-carboxylic acid]",460
6,"NC(=O)c1sc(COc2cccc(-c3cc(F)c(Cc4nc5ccc(C(=O)O)cc5n4C[C@@H]4CCO4)cc3F)n2)cc1F [Example 204, 2-[[4-[6-[(5-carbamoyl-4-fluoro-2-thienyl)methoxy]-2-pyridyl]-2,5-difluoro-phenyl]methyl]-3-[[(2S)-oxetan-2-yl]methyl]benzimidazole-5-carboxylic acid]",5570
7,"Cc1ncc(C#Cc2ccc(COc3cccc(-c4cc(F)c(Cc5nc6ccc(C(=O)O)cc6n5C[C@@H]5CCO5)cc4F)n3)c(F)c2)n1C [Example 149, (S)-2-(4-(6-((4-((1,2-dimethyl-1H-imidazol-5-yl)ethynyl)-2-fluorobenzyl)oxy)pyridin-2-yl)-2,5-difluorobenzyl)-1-(oxetan-2-ylmethyl)-1H-benzo[d]imidazole-6-carboxylic acid]",290
8,"O=C(O)c1cc(F)c2nc(Cc3cc(F)c(-c4cccc(OCc5ncc(-c6cnn(C(F)F)c6)s5)n4)cc3F)n(C[C@@H]3CCO3)c2c1 [Example 85, (S)-2-(4-(6-((5-(1-(difluoromethyl)-1H-pyrazol-4-yl)thiazol-2-yl)methoxy)pyridin-2-yl)-2,5-difluorobenzyl)-4-fluoro-1-(oxetan-2-ylmethyl)-1H-benzo[d]imidazole-6-carboxylic acid]",50
9,"N#Cc1ccc2nc(COc3cccc(-c4cc(F)c(Cc5nc6ccc(C(=O)O)cc6n5C[C@@H]5CCO5)cc4F)n3)cn2c1 [Example 31, (S)-2-(4-(6-((6-cyanoimidazo[1,2-a]pyridin-2-yl)methoxy)pyridin-2-yl)-2,5-difluorobenzyl)-1-(oxetan-2-ylmethyl)-1H-benzo[d]imidazole-6-carboxylic acid]",1320
10,"N#CC1(NC(=O)c2cc(Cl)c(COc3cccc(-c4cc(F)c(Cc5nc6c(F)cc(C(=O)O)cc6n5C[C@@H]5CCO5)cc4F)n3)cn2)COC1 [Example 188, (S)-2-(4-(6-((4-chloro-6-((3-cyanooxetan-3-yl)carbamoyl)pyridin-3-yl)methoxy)pyridin-2-yl)-2,5-difluorobenzyl)-4-fluoro-1-(oxetan-2-ylmethyl)-1H-benzo[d]imidazole-6-carboxylic acid]",50
11,"O=C(O)c1ccc2nc(Cc3cc(F)c(-c4cccc(OCc5cc6n(n5)CCOC6)n4)cc3F)n(C[C@@H]3CCO3)c2c1 [Example 7, (S)-2-(4-(6-((6,7-dihydro-4H-pyrazolo[5,1-c][1,4]oxazin-2-yl)methoxy)pyridin-2-yl)-2,5-difluorobenzyl)-1-(oxetan-2-ylmethyl)-1H-benzo[d]imidazole-6-carboxylic acid]",3710
12,"O=C(O)c1ccc2nc(Cc3cc(F)c(-c4cccc(OCc5cnc(C(=O)NCC(F)(F)F)cc5Cl)n4)cc3F)n(C[C@@H]3CCO3)c2c1 [Example 191, (S)-2-(4-(6-((4-chloro-6-((2,2,2-trifluoroethyl)carbamoyl)pyridin-3-yl)methoxy)pyridin-2-yl)-2,5-difluorobenzyl)-1-(oxetan-2-ylmethyl)-1H-benzo[d]imidazole-6-carboxylic acid]",690
13,"Cn1nc(COc2cccc(-c3cc(F)c(Cc4nc5ccc(C(=O)O)cc5n4C[C@@H]4CCO4)cc3F)n2)cc1Cl [Example 38, (S)-2-(4-(6-((5-chloro-1-methyl-1H-pyrazol-3-yl)methoxy)pyridin-2-yl)-2,5-difluorobenzyl)-1-(oxetan-2-ylmethyl)-1H-benzo[d]imidazole-6-carboxylic acid]",600

# Results, then the compound that gave them:
row,EC50 [pM],SMILES
1,66,"CCOc1nnc(COc2nc(-c3cc(F)c(Cc4nc5c(F)cc(C(=O)O)cc5n4[C@@H]4COCC4(C)C)cc3C)ccc2F)s1 [Example 422, (S)-1-(4,4-dimethyltetrahydrofuran-3-yl)-2-(4-(6-((5-ethoxy-1,3,4-thiadiazol-2-yl)methoxy)-5-fluoropyridin-2-yl)-2-fluoro-5-methylbenzyl)-4-fluoro-1H-benzo[d]imidazole-6-carboxylic acid]"
2,620,"Cn1ncc(C#Cc2ccc(COc3cccc(-c4cc(F)c(Cc5nc6ccc(C(=O)O)cc6n5C[C@@H]5CCO5)cc4F)n3)c(F)c2)c1Cl [Example 361, (S)-2-(4-(6-((4-((5-chloro-1-methyl-1H-pyrazol-4-yl)ethynyl)-2-fluorobenzyl)oxy)pyridin-2-yl)-2,5-difluorobenzyl)-1-(oxetan-2-ylmethyl)-1H-benzo[d]imidazole-6-carboxylic acid]"
3,84,"CC(F)(F)c1cnc(COc2nc(-c3cc(F)c(Cc4nc5c(F)cc(C(=O)O)cc5n4C[C@@H]4CCO4)cc3F)ccc2F)s1 [Example 309, (S)-2-(4-(6-((5-(1,1-difluoroethyl)thiazol-2-yl)methoxy)-5-fluoropyridin-2-yl)-2,5-difluorobenzyl)-4-fluoro-1-(oxetan-2-ylmethyl)-1H-benzo[d]imidazole-6-carboxylic acid]"
4,90,"O=C(O)c1ccc2nc(Cc3cc(F)c(-c4cccc(OCc5ncc(Cl)s5)n4)cc3F)n(C[C@@H]3CCO3)c2c1 [Example 47, (S)-2-(4-(6-((5-chlorothiazol-2-yl)methoxy)pyridin-2-yl)-2,5-difluorobenzyl)-1-(oxetan-2-ylmethyl)-1H-benzo[d]imidazole-6-carboxylic acid]"
5,431,"O=C(O)c1ccc2nc(Cc3cc(F)c(-c4cccc(OCc5nnc(C#CC6CC(F)(F)C6)s5)n4)cc3F)n(C[C@@H]3CCO3)c2c1 [Example 330, (S)-2-(4-(6-((5-((3,3-difluorocyclobutyl)ethynyl)-1,3,4-thiadiazol-2-yl)methoxy)pyridin-2-yl)-2,5-difluorobenzyl)-1-(oxetan-2-ylmethyl)-1H-benzo[d]imidazole-6-carboxylic acid]"
6,427,"CCOC(=O)N1Cc2ccc(COc3cccc(-c4cc(F)c(Cc5nc6ccc(C(=O)O)cc6n5C[C@@H]5CCO5)cc4F)n3)cc2C1 [Example 435, (S)-2-(4-(6-((2-(ethoxycarbonyl)isoindolin-5-yl)methoxy)pyridin-2-yl)-2,5-difluorobenzyl)-1-(oxetan-2-ylmethyl)-1H-benzo[d]imidazole-6-carboxylic acid]"
7,620,"N#Cc1ncc(COc2cccc(-c3cc(F)c(Cc4nc5ccc(C(=O)O)cc5n4C[C@@H]4CCO4)cc3F)n2)s1 [Example 166, (S)-2-(4-(6-((2-cyanothiazol-5-yl)methoxy)pyridin-2-yl)-2,5-difluorobenzyl)-1-(oxetan-2-ylmethyl)-1H-benzo[d]imidazole-6-carboxylic acid]"
8,170,"Cn1cc(NC(=O)c2cc(Cl)c(COc3cccc(-c4cc(F)c(Cc5nc6ccc(C(=O)O)cc6n5C[C@@H]5CCO5)cc4F)n3)cn2)cn1 [Example 194, (S)-2-(4-(6-((4-chloro-6-((1-methyl-1H-pyrazol-4-yl)carbamoyl)pyridin-3-yl)methoxy)pyridin-2-yl)-2,5-difluorobenzyl)-1-(oxetan-2-ylmethyl)-1H-benzo[d]imidazole-6-carboxylic acid]"
9,202,"O=C(O)c1ccc2nc(Cc3cc(F)c(-c4cccc(OCc5ncc(C#CC6(C(F)(F)F)CC6)s5)n4)cc3F)n(C[C@@H]3CCO3)c2c1 [Example 335, (S)-2-(2,5-difluoro-4-(6-((5-((1-(trifluoromethyl)cyclopropyl)ethynyl)thiazol-2-yl)methoxy)pyridin-2-yl)benzyl)-1-(oxetan-2-ylmethyl)-1H-benzo[d]imidazole-6-carboxylic acid]"
10,243,"Cn1cc(C#Cc2ccc(COc3cccc(-c4cc(F)c(Cc5nc6ccc(C(=O)O)cc6n5C[C@@H]5CCO5)cc4F)n3)nc2Cl)cn1 [Example 358, (S)-2-(4-(6-((6-chloro-5-((1-methyl-1H-pyrazol-4-yl)ethynyl)pyridin-2-yl)methoxy)pyridin-2-yl)-2,5-difluorobenzyl)-1-(oxetan-2-ylmethyl)-1H-benzo[d]imidazole-6-carboxylic acid]"
11,254,"CCOc1nnc(COc2cc(-c3cc(F)c(Cc4nc5ccc(C(=O)O)cc5n4[C@@H]4COCC4(C)C)cc3C)ccc2F)s1 [Example 260, (S)-1-(4,4-dimethyltetrahydrofuran-3-yl)-2-((3′-((5-ethoxy-1,3,4-thiadiazol-2-yl)methoxy)-4′,5-difluoro-2-methyl-[1,1′-biphenyl]-4-yl)methyl)-1H-benzo[d]imidazole-6-carboxylic acid]"
